≈ marks a conversion by molar mass, not a printed value. Like-named read-outs stand apart in the source and are kept apart here.

For data set [1], the system named is experimental animal models suffering from neuropathy, epilepsy or cerebral ischemia. The conditions noted are these: in vivo; cited from earlier work.
In data set [2] the test system is AMPA/kainate receptor. The conditions noted are these: cited from earlier work.
Data set [3] relates to neuronal culture system. The conditions noted are these: substance alone; cited from earlier work.
Data set [4] deals with hippocampal neuron (kainic acid neurotoxicity). Nature of the data set: inhibitory activity against kainic acid neurotoxicity in primary culture of hippocampal neurons (LDH release). To be noted: 300 μM kainic acid, 24 hours, fetal rat hippocampal neuron, read-out: IC50, inhibition of neuronal death caused by kainic acid. The data set is classed as cell-based. As for the experimental part: 2) Measurement of inhibitory activity against kainic acid neurotoxicity:
Inhibitory action of the invention compound against kainic acid neurotoxicity was investigated using the primary culture system of the hippocampal neuron of a fetal rat.
(1) Incubation conditions
The hippocamp was cut out from a brain of the 18 to 20-day-old fetal rat and was subjected to enzyme treatment with papain and DNase I to disperse the cells. The cells so obtained were floated on MEM containing 10% serum and then were inoculated on a 48-well plate treated in advance with poly-I-lysine in a concentration of 4×10^5 cell/cm^2. Twenty four hours later, the serum was replaced by a serum-free medium. The medium replacement was carried out twice a week. The cells which were cultivated for at least 6 days were provided for the following test.
(2) Inhibition against kainic acid neurotoxicity
Neurotoxicity was expressed by an activity of lactate dehydrogenase released in the culture medium by the cell death. As a control, neurons which were exposed to a serum-free medium containing 300 μM kainic acid for 24 hours were used. Each compound, together with 300 μM kainic acid, was allowed to act on the neuron for 24 hours and inhibitory action of each compound against neuronal death caused by kainic acid was evaluated.

Data set [5] concerns DBA/2 mouse (audiogenic seizure). Nature of the data set: audiogenic seizure inhibitory action in DBA/2 mouse. The conditions noted are these: ip, 0.25 h, intraperitoneal, 15 minutes before stimulation by sound of 12 kHz and 120 dB, male 21 to 28-day-old mice, read-out: minimum effective dose (MED), suppression of audiogenic seizure. The format is in vivo. As for the experimental part:
3) Measurement of audiogenic seizure inhibitory action in DBA/2 mouse
Ten male 21 to 28-day-old mice were exposed to auditory and stimulation by the sound of 12 kHz and 120 dB in a sound proof box for one minute or until these mice cause tonic seizure. The test compound was suspended in a 0.5% methylcellulose solution or dissolved in physiological saline and the resulting suspension or solution was intraperitoneally administered 15 minutes before the stimulation by the sound. The drug efficacy was evaluated by presence or absence of the appearance of seizure and the minimum effective dose (MED) was determined.

Data set [6] can be described thus: solubility in phosphate buffers of pH 5, 6, 7 and 8. The data set is classed as physicochemical. To be noted: aqueous buffer. As for the experimental part: 4) Measurement of solubility
To a 0.1M aqueous solution of potassium dihydrogenphosphate, a 0.1M aqueous solution of […] was added, whereby buffers having pH of 5, 6, 7 and 8 were prepared, respectively.
Measurement of Solubility:
About 5 mg portions of the invention compound were weighed precisely in four glass test tubes and 0.1 ml phosphate buffers having pH 5, 6, 7 and 8 were added, respectively, followed by thorough shaking. The value obtained in accordance with the following equation was taken as the solubility. [formula]

The target of data set [7] is AMPA receptor. Nature of the data set: inhibitory activity against the binding of [3H]-AMPA (rat cerebral membrane). The conditions noted are these: about 45 nM [3H]-AMPA, 45 minutes on ice water, non-specific: 10 μM quisqualic acid, read-out: Ki value, inhibition of [3H]-AMPA binding. As for the experimental part:
Inhibitory activity against the binding with [^3 H]-AMPA, kainic acid neurotoxicity and audiogenic seizure were confirmed as follows:
1) Measurement of inhibitory activity against the binding of [^3 H]-AMPA:
On ice water, 0.5 ml in total of a reaction liquid containing about 45 nM [^3 H]-AMPA [2-amino-3-(3-hydroxy-5-methyl-4-isoxazolyl)propionic acid], about […] of a sample of a rat cerebral membrane and a test compound was reacted for 45 minutes. The amount of [^3 H]-AMPA bound to the AMPA receptor was measured by the filtration method. A portion substituted by 10 μM quisqualic acid in the total bound amount was taken as the specific binding amount. Evaluation of the test compound was carried out by determining the binding inhibition ratio against the specific binding.

Data set [8] relates to experimental animal models suffering from cerebral ischemia. To be noted: in vivo; cited from earlier work.
Setting [9] is: phosphate buffer pH 6, read-out: solubility, pH 6.

For `NC(CCCP(=O)(O)O)C(=O)O` (stereo not shown) [2-amino-5-phosphonovalerianic acid], the “effect in experimental animal models of neuropathy, epilepsy or cerebral ischemia (in words)” value in data set [1] is given as “effective”.

As for `NC(CCCCCP(=O)(O)O)C(=O)O` (stereo not shown) [2-amino-7-phosphonoheptanic acid], the “effect in experimental animal models of neuropathy, epilepsy or cerebral ischemia (in words)” value in data set [1] is “effective”.

As to `Cc1onc(O)c1CC(N)C(=O)O` (stereo not shown) [AMPA, 2-amino-3-(3-hydroxy-5-methyl-4-isoxazolyl)propionic acid], the “affinity with the AMPA/kainate receptor (in words)” value in data set [2] was “high affinity”. In data set [3], the “neuronal cell death in neuronal culture (in words)” value is “weak”.

For the molecule `O=C(O)Cn1c(=O)c(=O)[nH]c2cc([N+](=O)[O-])c(-n3ccnc3)cc21` [Example 1, 2-[2,3-dioxo-7-(1H-imidazol-1-yl)-6-nitro-1,2,3,4-tetrahydroquinoxalin-1-yl]acetic acid], in data set [4], the IC50 (as a rule, the point on the concentration scale where inhibition reaches its midpoint) stood at 0.8 µM. In data set [5], the minimal effective dose worked out at 3 mg/kg. Moreover, the solubility (in general, how much of the substance goes into solution per volume) in data set [6] (phosphate buffer pH 5, read-out: solubility, pH 5) is 2490 µg/mL (≈ 7.51 mM); in data set [6] (setting [9]), 2620 µg/mL (≈ 7.91 mM); in data set [6] (phosphate buffer pH 7, read-out: solubility, pH 7), 3640 µg/mL (≈ 11 mM); in data set [6] (phosphate buffer pH 8, read-out: solubility, pH 8) it was 5130 µg/mL (≈ 15.5 mM). Further, the Ki – broadly, the dissociation constant of the complex between target and ligand, obtained from inhibition or displacement – in data set [7] was determined as 0.73 µM.

For the molecule `O=C(O)Cn1c(=O)c(=O)[nH]c2cc(C(F)(F)F)c(-n3ccnc3)cc21` [Example 9, 2-[2,3-dioxo-7-(1H-imidazole-1-yl)-6-trifluoromethyl-1,2,3,4-tetrahydroquinoxalin-1-yl]acetic acid], in data set [4], the 50% inhibitory concentration (IC50) came out at 0.96 µM. Further, the minimal effective dose in data set [5] is 10 mg/kg. Further, in data set [6] (setting [9]), the solubility stood at 4100 µg/mL (≈ 11.6 mM). In data set [7], the Ki is 0.093 µM.

For the molecule `O=C(O)Cn1c(=O)c(=O)[nH]c2cc(OCc3ccccc3)c(-n3ccnc3)cc21` [Example 19, 2-[6-benzyloxy-2,3-dioxo-7-(1H-imidazol-1-yl)-1,2,3,4-tetrahydroquinoxalin-1-yl]acetic acid], the 50% inhibitory concentration (IC50) in data set [4] worked out at 0.48 µM. The minimal effective dose in data set [5] worked out at 1 mg/kg. Further, in data set [7], the Ki came to 0.07 µM.

Turning to `NC1CCN(O)C1=O` (stereo not shown) [HA-966], the “effect in experimental animal models of cerebral ischemia (in words)” value in data set [8] is listed as “effective”.

On to `NS(=O)(=O)c1cccc2c1c([N+](=O)[O-])cc1[nH]c(=O)c(=O)[nH]c12` [NBQX], for which the “effect in experimental animal models of cerebral ischemia (in words)” value in data set [8] is “effective”.

As to `C=C(C)[C@H]1CN[C@H](C(=O)O)[C@H]1CC(=O)O` [kainic acid], in data set [2], the “affinity with the AMPA/kainate receptor (in words)” value is recorded as “low affinity”. Besides, the “neuronal cell death in neuronal culture (in words)” value in data set [3] was “causes marked neuronal cell death”.

Source of the values: US6096743A, “1,2,3,4-tetrahydroquinoxalinedione derivative” (Yamanouchi Pharmaceuticals Co., Ltd., priority 1994, dated 2000).
